Data on one compound can be found in patent publication US20180370918A1, “SORAFENIB HEMI-P-TOSYLATE MONOHYDRATE CRYSTAL AND PREPARATION PROCESS THEREOF” (CHIA TAI TIANQING PHARMACEUTICAL GROUP CO., LTD., priority 2015, published 2018).

Series [1] can be described thus: Hygroscopicity test (Chinese Pharmacopoeia 2010, Guideline for Hygroscopicity Test of Drug). In kind it is physicochemical. The procedure: The hygroscopicity test for the sorafenib hemi-p-tosylate monohydrate crystal of the present invention was conducted according to the Chinese Pharmacopoeia (2010), Part II, Appendix XIX J: Guideline for Hygroscopicity Test of Drug.

Series [2] is described as follows: Stability test (Chinese Pharmacopoeia 2010, Guideline for Stability Test of Bulk Drug), purity by HPLC. Format: physicochemical. The procedure: Chromatographic column: Agilent peptide map chromatographic column (3.0×150 mm, 2.7 μm)
Mobile phase A: phosphate buffer solution (monopotassium phosphate (0.79 g) was weighted and dissolved in water, then diluted to 1000 ml, and further adjusted to pH=2.4 with phosphoric acid)
Mobile phase B: ethanol-acetonitrile (40:60)
Detection wavelength: 235 nm for detection
Column temperature: 55° C.
Solvent: mobile phase A-mobile phase B (1:3)
Preparation of a solution of a test sample: an appropriate amount of the test sample was weighted and dissolved in the solvent [mobile phase A-mobile phase B (1:3)], then diluted to a solution which comprises about 0.16 mg of sorafenib per 1 ml as the solution of the test sample.
The stability test for the sorafenib hemi-p-tosylate monohydrate crystal of the present invention was conducted according to the Chinese Pharmacopoeia (2010), Part 11, Appendix XIX C: Guideline for Stability Test of Bulk Drug and Pharmaceutical Preparation.

With `CNC(=O)c1cc(Oc2ccc(NC(=O)Nc3ccc(Cl)c(C(F)(F)F)c3)cc2)ccn1` [sorafenib hemi-p-tosylate monohydrate], the “Hygroscopic weight grain (%)” value in series [1] is 0.07%. Moreover, the Purity was 99.96% in series [2] (Day 0); 99.97% in series [2] (Exposure test to light (luminance: 6000 Lux), standing for 10 days); 99.96% in series [2] (Shading test (luminance: 6000 Lux), standing for 10 days); 99.96% in series [2] (Standing for 6 months at 25° C. ± 2° C. and humidity of 60% ± 5%); 99.96% in series [2] (Standing for 10 days at 25° C. and humidity of 92.5% ± 5%); 99.96% in series [2] (Standing for 10 days at 40° C.). In series [2] (Standing for 10 days at 60° C.), the Purity turned out to be 99.95%. The “Stability (conclusion in words)” value in series [2] (results of Table 4) is given as “highly stable”.
